From patent publication US12577245B2, “Sulfonyl benzamide derivatives as Bcl-2 inhibitors” (ASCENTAGE PHARMA (SUZHOU) CO., LTD., priority 2021, dated 2026)

Columns and labels:
MV-4-11 cells = assay: CCK-8 cell viability assay in MV-4-11 cells; type: cell-based; conditions: Homo sapiens, MV4-11, 72 h, 10% FBS, 3 days
Outline: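 MV-4-11 cells (20000/well) were exposed to serially diluted compound for 3 days at 37 °C. Viability was then measured with CCK-8 (1–4 h, absorbance 450 nm). IC50 was derived from readings normalized to vehicle.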

Bcl-2 WT = Bcl-2 WT (Homo sapiens, UniProt P10415); assay: Bcl-2 WT inhibition, fluorescence polarization (Flu-BIM tracer) binding assay; conditions: FP; 20 nM Bcl2, 5 nM Flu-BIM, 1 h incubation; read-out: Bcl-2 w.t. (FP)
RS4; 11Bcl-2-G101V cells = assay: CellTiter-Glo (CTG) cell viability assay in RS4;11-Bcl-2-G101V cells; type: cell-based; conditions: 72 h, 10% FBS, 3 days
Outline: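 Engineered RS4;11 lines carrying Bcl-2 mutants, 10000 cells/well in RPMI-1640 with 10% FBS, exposed to serially diluted compound for 3 days at 37 °C, 5% CO2. Viability read by CellTiter-Glo luminescence, normalized to vehicle; IC50 calculated.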

Bcl-2 WT, sequence (P10415 whole entry): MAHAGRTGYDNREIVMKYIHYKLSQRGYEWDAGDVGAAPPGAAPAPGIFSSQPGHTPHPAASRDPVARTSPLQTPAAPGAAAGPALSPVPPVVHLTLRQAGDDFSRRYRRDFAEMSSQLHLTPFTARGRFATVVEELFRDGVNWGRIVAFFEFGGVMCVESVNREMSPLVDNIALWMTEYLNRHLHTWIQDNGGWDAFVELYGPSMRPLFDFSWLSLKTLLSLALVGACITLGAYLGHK

Row | SMILES | IC50 (MV-4-11 cells) | IC50 (Bcl-2 WT) | IC50 (RS4; 11Bcl-2-G101V cells)
1 | CCC(O)(CC)c1cc(F)c(-c2csc(C3=C(CN4CCN(c5ccc(C(=O)NS(=O)(=O)c6ccc(NC[C@H]7CC[C@](C)(O)CC7)c([N+](=O)[O-])c6)c(Oc6cnc7[nH]ccc7c6)c5)CC4)CCC(C)(C)C3)c2)c(F)c1 [Example 67, 2-((1H-pyrrolo[2,3-b]pyridin-5-yl)oxy)-4-(4-((2-(4-(2,6-difluoro-4-(3-hydroxypentan-3-yl)phenyl)thiophen-2-yl)-4,4-dimethylcyclohex-1-en-1-yl)methyl)piperazin-1-yl)-N-((4-((((1r,4r)-4-hydroxy-4-methylcyclohexyl)methyl)amino)-3-nitrophenyl)sulfonyl)benzamide] | 251 nM | 27.2 nM | 840 nM
2 | [2H]C([2H])([2H])C(O)(c1cc(F)c(-c2csc(C3=C(CN4CCN(c5ccc(C(=O)NS(=O)(=O)c6ccc(NC[C@H]7CC[C@](C)(O)CC7)c([N+](=O)[O-])c6)c(Oc6cnc7[nH]ccc7c6)c5)CC4)CCC(C)(C)C3)c2)c(F)c1)C([2H])([2H])[2H] [Example 68, 2-((1H-pyrrolo[2,3-b]pyridin-5-yl)oxy)-4-(4-((2-(4-(2,6-difluoro-4-(2-hydroxypropan-2-yl-1,1,1,3,3,3-d6)phenyl)thiophen-2-yl)-4,4-dimethylcyclohex-1-en-1-yl)methyl)piperazin-1-yl)-N-((4-((((1r,4r)-4-hydroxy-4-methylcyclohexyl)methyl)amino)-3-nitrophenyl)sulfonyl)benzamide] | 9 nM | 23.2 nM | 21 nM
3 | CC1(C)CCC(CN2CCN(c3ccc(C(=O)NS(=O)(=O)c4ccc(NC[C@H]5CC[C@](C)(O)CC5)c([N+](=O)[O-])c4)c(Oc4cnc5[nH]ccc5c4)c3)CC2)=C(c2cc(-c3c(F)cc(C(C)(O)C4CC4)cc3F)cs2)C1 (stereo partly drawn) [Example 69, 2-((1H-pyrrolo[2,3-b]pyridin-5-yl)oxy)-4-(4-((2-(4-(4-(1-cyclopropyl-1-hydroxyethyl)-2,6-difluorophenyl)thiophen-2-yl)-4,4-dimethylcyclohex-1-en-1-yl)methyl)piperazin-1-yl)-N-((4-((((1r,4r)-4-hydroxy-4-methylcyclohexyl)methyl)amino)-3-nitrophenyl)sulfonyl)benzamide] | 473 nM | 24.8 nM | 300 nM
4 | CC1(C)CCC(CN2CCN(c3ccc(C(=O)NS(=O)(=O)c4ccc(NC[C@H]5CC[C@](C)(O)CC5)c([N+](=O)[O-])c4)c(Oc4cnc5[nH]ccc5c4)c3)CC2)=C(c2cc(-c3cccc(C(C)(C)O)c3)cs2)C1 [Example 70, 2-((1H-pyrrolo[2,3-b]pyridin-5-yl)oxy)-N-((4-((((1r,4r)-4-hydroxy-4-methylcyclohexyl)methyl)amino)-3-nitrophenyl)sulfonyl)-4-(4-((2-(4-(3-(2-hydroxypropan-2-yl)phenyl)thiophen-2-yl)-4,4-dimethylcyclohex-1-en-1-yl)methyl)piperazin-1-yl)benzamide] | 95 nM | 19.8 nM | 1460 nM
5 | CC1(C)CCC(CN2CCN(c3ccc(C(=O)NS(=O)(=O)c4ccc(NC[C@H]5CC[C@](C)(O)CC5)c([N+](=O)[O-])c4)c(Oc4cnc5[nH]ccc5c4)c3)CC2)=C(c2cc(-c3ccc(C(C)(C)O)c(F)c3)cs2)C1 [Example 71, 2-((1H-pyrrolo[2,3-b]pyridin-5-yl)oxy)-4-(4-((2-(4-(3-fluoro-4-(2-hydroxypropan-2-yl)phenyl)thiophen-2-yl)-4,4-dimethylcyclohex-1-en-1-yl)methyl)piperazin-1-yl)-N-((4-((((1r,4r)-4-hydroxy-4-methylcyclohexyl)methyl)amino)-3-nitrophenyl)sulfonyl)benzamide] | 12 nM | 15.4 nM | 330 nM
6 | CC(CO)c1ccc(-c2csc(C3=C(CN4CCN(c5ccc(C(=O)NS(=O)(=O)c6ccc(NC[C@H]7CC[C@](C)(O)CC7)c([N+](=O)[O-])c6)c(Oc6cnc7[nH]ccc7c6)c5)CC4)CCC(C)(C)C3)c2)c(F)c1 (stereo partly drawn) [Example 72, 2-((1H-pyrrolo[2,3-b]pyridin-5-yl)oxy)-4-(4-((2-(4-(2-fluoro-4-(1-hydroxypropan-2-yl)phenyl)thiophen-2-yl)-4,4-dimethylcyclohex-1-en-1-yl)methyl)piperazin-1-yl)-N-((4-((((1r,4r)-4-hydroxy-4-methylcyclohexyl)methyl)amino)-3-nitrophenyl)sulfonyl)benzamide] | 12 nM | 20.5 nM | 440 nM
7 | CC(C)(O)Cc1ccc(-c2csc(C3=C(CN4CCN(c5ccc(C(=O)NS(=O)(=O)c6ccc(NC[C@H]7CC[C@](C)(O)CC7)c([N+](=O)[O-])c6)c(Oc6cnc7[nH]ccc7c6)c5)CC4)CCC(C)(C)C3)c2)c(F)c1 [Example 73, 2-((1H-pyrrolo[2,3-b]pyridin-5-yl)oxy)-4-(4-((2-(4-(2-fluoro-4-(2-hydroxy-2-methylpropyl)phenyl)thiophen-2-yl)-4,4-dimethylcyclohex-1-en-1-yl)methyl)piperazin-1-yl)-N-((4-((((1r,4r)-4-hydroxy-4-methylcyclohexyl)methyl)amino)-3-nitrophenyl)sulfonyl)benzamide] | 8 nM | 23.7 nM | 490 nM
8 | CC1(C)CCC(CN2CCN(c3ccc(C(=O)NS(=O)(=O)c4ccc(NC[C@H]5CC[C@](C)(O)CC5)c([N+](=O)[O-])c4)c(Oc4cnc5[nH]ccc5c4)c3)CC2)=C(c2cc(-c3c(F)cc(C(C)(C)CO)cc3F)cs2)C1 [Example 74, 2-((1H-pyrrolo[2,3-b]pyridin-5-yl)oxy)-4-(4-((2-(4-(2,6-difluoro-4-(1-hydroxy-2-methylpropan-2-yl)phenyl)thiophen-2-yl)-4,4-dimethylcyclohex-1-en-1-yl)methyl)piperazin-1-yl)-N-((4-((((1r,4r)-4-hydroxy-4-methylcyclohexyl)methyl)amino)-3-nitrophenyl)sulfonyl)benzamide] | 52 nM | 38.5 nM | 230 nM
9 | CC1(C)CCC(CN2CCN(c3ccc(C(=O)NS(=O)(=O)c4ccc(NC[C@H]5CC[C@](C)(O)CC5)c([N+](=O)[O-])c4)c(Oc4cnc5[nH]ccc5c4)c3)CC2)=C(c2cc(-c3cc(C(C)(C)O)ccc3F)cs2)C1 [Example 75, 2-((1H-pyrrolo[2,3-b]pyridin-5-yl)oxy)-4-(4-((2-(4-(2-fluoro-5-(2-hydroxypropan-2-yl)phenyl)thiophen-2-yl)-4,4-dimethylcyclohex-1-en-1-yl)methyl)piperazin-1-yl)-N-((4-((((1r,4r)-4-hydroxy-4-methylcyclohexyl)methyl)amino)-3-nitrophenyl)sulfonyl)benzamide] | 118 nM | 19.2 nM | 1580 nM
10 | CC1(C)CCC(CN2CCN(c3ccc(C(=O)NS(=O)(=O)c4ccc(NC[C@H]5CC[C@](C)(O)CC5)c([N+](=O)[O-])c4)c(Oc4cnc5[nH]ccc5c4)c3)CC2)=C(c2cc(-c3ccc(C(C)(O)C(F)(F)F)cc3F)cs2)C1 (stereo partly drawn) [Example 78, 2-((1H-pyrrolo[2,3-b]pyridin-5-yl)oxy)-4-(4-((2-(4-(2-fluoro-4-(1,1,1-trifluoro-2-hydroxypropan-2-yl)phenyl)thiophen-2-yl)-4,4-dimethylcyclohex-1-en-1-yl)methyl)piperazin-1-yl)-N-((4-((((1r,4r)-4-hydroxy-4-methylcyclohexyl)methyl)amino)-3-nitrophenyl)sulfonyl)benzamide] | 59 nM | 16.8 nM | 580 nM
